According to patent publication US5026848A, “Novel generation of heteroaryloxyalkyl heterocycles with antipicornaviruses activities” (Synphar Laboratories Incorporated, priority 1988, dated 1991):
Values after ≈ are worked out from the molar mass of the structure shown. Like-named read-outs stand apart in the source and are kept apart here.

How the values were obtained:
WI38 cells = assay: Toxicity to WI38 cells (change in morphology in / growth inhibition of 25% of the cells); assay type: cell-based
Rhinovirus 1A = assay: Anti-rhinovirus activity, cytopathic effect inhibition / neutral red dye uptake, type 1A; assay type: cell-based; conditions: Enterovirus, WI-38; Table I; WI38 cells, 33° C., 3-4 days; NA = Not active; read-out: MIC50 Rhinovirus 1A
Rhinovirus 1B = assay: Anti-rhinovirus activity, cytopathic effect inhibition / neutral red dye uptake, type 1B; assay type: cell-based; conditions: Enterovirus, WI-38; Table II; one of seven commonest serotypes; read-out: MIC 50 Rhinovirus Type 1B
Rhinovirus 2 = assay: Anti-rhinovirus activity, cytopathic effect inhibition / neutral red dye uptake, type 2; assay type: cell-based; conditions: Enterovirus, WI-38; Table II; one of seven commonest serotypes; read-out: MIC 50 Rhinovirus Type 2
Rhinovirus 4 = assay: Anti-rhinovirus activity, cytopathic effect inhibition / neutral red dye uptake, type 4; assay type: cell-based; conditions: Enterovirus, WI-38; Table II; one of seven commonest serotypes; read-out: MIC 50 Rhinovirus Type 4
Rhinovirus 15 = assay: Anti-rhinovirus activity, cytopathic effect inhibition / neutral red dye uptake, type 15; assay type: cell-based; conditions: Enterovirus, WI-38; Table II; one of seven commonest serotypes; read-out: MIC 50 Rhinovirus Type 15
Rhinovirus 17 = assay: Anti-rhinovirus activity, cytopathic effect inhibition / neutral red dye uptake, type 17; assay type: cell-based; conditions: Enterovirus, WI-38; Table II; read-out: MIC 50 Rhinovirus Type 17
Rhinovirus 23 = assay: Anti-rhinovirus activity, cytopathic effect inhibition / neutral red dye uptake, type 23; assay type: cell-based; conditions: Enterovirus, WI-38; Table II; read-out: MIC 50 Rhinovirus Type 23
Rhinovirus 29 = assay: Anti-rhinovirus activity, cytopathic effect inhibition / neutral red dye uptake, type 29; assay type: cell-based; conditions: Enterovirus, WI-38; Table II; one of seven commonest serotypes; read-out: MIC 50 Rhinovirus Type 29
Rhinovirus 30 = assay: Anti-rhinovirus activity, cytopathic effect inhibition / neutral red dye uptake, type 30; assay type: cell-based; conditions: Enterovirus, WI-38; Table II; read-out: MIC 50 Rhinovirus Type 30
Rhinovirus 31 = assay: Anti-rhinovirus activity, cytopathic effect inhibition / neutral red dye uptake, type 31; assay type: cell-based; conditions: Enterovirus, WI-38; Table II; one of seven commonest serotypes; read-out: MIC 50 Rhinovirus Type 31
Rhinovirus 32 = assay: Anti-rhinovirus activity, cytopathic effect inhibition / neutral red dye uptake, type 32; assay type: cell-based; conditions: Enterovirus, WI-38; Table II; read-out: MIC 50 Rhinovirus Type 32
Rhinovirus 36 = assay: Anti-rhinovirus activity, cytopathic effect inhibition / neutral red dye uptake, type 36; assay type: cell-based; conditions: Enterovirus, WI-38; Table II; read-out: MIC 50 Rhinovirus Type 36
Rhinovirus 39 = assay: Anti-rhinovirus activity, cytopathic effect inhibition / neutral red dye uptake, type 39; assay type: cell-based; conditions: Enterovirus, WI-38
Rhinovirus 44 = assay: Anti-rhinovirus activity, cytopathic effect inhibition / neutral red dye uptake, type 44; assay type: cell-based; conditions: Enterovirus, WI-38; Table II; read-out: MIC 50 Rhinovirus Type 44
Rhinovirus 49 = assay: Anti-rhinovirus activity, cytopathic effect inhibition / neutral red dye uptake, type 49; assay type: cell-based; conditions: Enterovirus, WI-38; Table II; read-out: MIC 50 Rhinovirus Type 49
Rhinovirus 53 = assay: Anti-rhinovirus activity, cytopathic effect inhibition / neutral red dye uptake, type 53; assay type: cell-based; conditions: Enterovirus, WI-38; Table II; read-out: MIC 50 Rhinovirus Type 53
Rhinovirus 56 = assay: Anti-rhinovirus activity, cytopathic effect inhibition / neutral red dye uptake, type 56; assay type: cell-based; conditions: Enterovirus, WI-38; Table II; read-out: MIC 50 Rhinovirus Type 56
Rhinovirus 63 = assay: Anti-rhinovirus activity, cytopathic effect inhibition / neutral red dye uptake, type 63; assay type: cell-based; conditions: Enterovirus, WI-38; Table II; read-out: MIC 50 Rhinovirus Type 63
Rhinovirus 86 = assay: Anti-rhinovirus activity, cytopathic effect inhibition / neutral red dye uptake, type 86; assay type: cell-based; conditions: Enterovirus, WI-38; Table II; read-out: MIC 50 Rhinovirus Type 86
Rhinovirus 88 = assay: Anti-rhinovirus activity, cytopathic effect inhibition / neutral red dye uptake, type 88; assay type: cell-based; conditions: Enterovirus, WI-38; Table II; read-out: MIC 50 Rhinovirus Type 88
Polio 1 = assay: microbe, parasite or virus in culture; assay type: cell-based; conditions: Enterovirus, read-out: MIC 50 Polio 1
Coxsacki-A9 = assay: Activity against other picornaviruses, Coxsacki-A9; assay type: cell-based; conditions: Enterovirus, read-out: MIC 50 Cox. A9
Coxsacki-A21 = assay: Activity against other picornaviruses, Coxsacki-A21; assay type: cell-based; conditions: Enterovirus, read-out: MIC 50 Cox. A21
Coxsacki-B1 = assay: Activity against other picornaviruses, Coxsacki-B1; assay type: cell-based; conditions: Enterovirus, read-out: MIC 50 Cox. B1
Coxsacki-B4 = assay: Activity against other picornaviruses, Coxsacki-B4; assay type: cell-based; conditions: Enterovirus, read-out: MIC 50 Cox. B4
Echo-7 = assay: Activity against other picornaviruses, Echo-7; assay type: cell-based; conditions: Enterovirus, read-out: MIC 50 Echo 7
Echo-11 = assay: Activity against other picornaviruses, Echo-11; assay type: cell-based; conditions: Enterovirus, read-out: MIC 50 Echo 11
Enterovirus serotypes = assay type: cell-based; conditions: for All Enterovirus Serotypes (number of serotypes active / tested): Table III, numerator, denominator 7, but 5 for compound 8
HRV-1A and HRV-39 = assay: Anti-rhinovirus activity against HRV-1A and HRV-39; conditions: in words
[1] = test system: 20 serotypes of rhinovirus; assay: Anti-rhinovirus activity against a panel of 20 serotypes; conditions: Table II; numerator; denominator 20, but 10 for compound 8 and 6 for compound 30
[2] = Table I, concentration with change in morphology in 25% of WI38 cells
[3] = Table I, WI38 cells, 33° C., 3-4 days, read-out: MIC50 Rhinovirus 39

SMILES | Toxicity (WI38 cells; [2]) [µg/mL] | Toxicity (WI38 cells; Table II) [µg/mL] | Toxicity (WI38 cells; Table III) [µg/mL] | EC50 (Rhinovirus 1A) [µg/mL] | IC50 (Rhinovirus 1B) [µg/mL] | IC50 (Rhinovirus 2) [µg/mL] | IC50 (Rhinovirus 4) [µg/mL] | IC50 (Rhinovirus 15) [µg/mL] | IC50 (Rhinovirus 17) [µg/mL] | IC50 (Rhinovirus 23) [µg/mL] | IC50 (Rhinovirus 29) [µg/mL] | IC50 (Rhinovirus 30) [µg/mL] | EC50 (Rhinovirus 31) [µg/mL] | EC50 (Rhinovirus 32) [µg/mL] | EC50 (Rhinovirus 36) [µg/mL] | EC50 (Rhinovirus 39; [3]) [µg/mL] | EC50 (Rhinovirus 44) [µg/mL] | EC50 (Rhinovirus 49) [µg/mL] | EC50 (Rhinovirus 53) [µg/mL] | EC50 (Rhinovirus 56) [µg/mL] | other results
Cc1cc(CCCCCCCOc2ccc3oc4ccccc4c3c2)on1 [Compound 5] | 100 | 100 | 100 | 5 (≈ 13.8 µM) | 5 (≈ 13.8 µM) | > 25 | < 0.5 | 5 (≈ 13.8 µM) | 10 (≈ 27.5 µM) | 5 (≈ 13.8 µM) | 5 (≈ 13.8 µM) | 0.5 (≈ 1.38 µM) | 10 (≈ 27.5 µM) | 25 (≈ 68.8 µM) | > 25 | 1 (≈ 2.75 µM) | < 0.5 | > 25 | 10 (≈ 27.5 µM) | 5 (≈ 13.8 µM) | EC50 (Rhinovirus 63): 10 µg/mL (≈ 27.5 µM); EC50 (Rhinovirus 86): 0.5 µg/mL (≈ 1.38 µM); EC50 (Rhinovirus 88): 0.5 µg/mL (≈ 1.38 µM); EC50 (Polio 1): 10 µg/mL (≈ 27.5 µM); EC50 (Coxsacki-A9): 5 µg/mL (≈ 13.8 µM); IC50 (Coxsacki-A21): 5 µg/mL (≈ 13.8 µM); IC50 (Coxsacki-B1): 10 µg/mL (≈ 27.5 µM); IC50 (Coxsacki-B4): > 25 µg/mL; IC50 (Echo-7): 25 µg/mL (≈ 68.8 µM); IC50 (Echo-11): > 25 µg/mL; inhibitory activity against the members of the Entero virus family (Enterovirus serotypes): remarkable inhibitory activity; All Enterovirus Serotypes (number of serotypes active / tested) (Enterovirus serotypes): 5; inhibitory activity against HRV-1A and HRV-39 in vitro (HRV-1A and HRV-39): remarkably inhibitory activity; All Rhinovirus Serotypes (number of serotypes active / tested) [1]: 17
Cc1cc(CCCCCCCOc2cc(C)nc3ccccc23)on1 [Compound 9, 5-[7-(2-methylquinolin-4-yl)oxyheptyl]-3-methisoxazole] | 50 | 50 | 50 | 5 (≈ 14.8 µM) | 10 (≈ 29.5 µM) | 1 (≈ 2.95 µM) | 10 (≈ 29.5 µM) | 5 (≈ 14.8 µM) | > 25 | 5 (≈ 14.8 µM) | 5 (≈ 14.8 µM) | 0.5 (≈ 1.48 µM) | 1 (≈ 2.95 µM) | 10 (≈ 29.5 µM) | 10 (≈ 29.5 µM) | 1 (≈ 2.95 µM) | 1 (≈ 2.95 µM) | 10 (≈ 29.5 µM) | 5 (≈ 14.8 µM) | 5 (≈ 14.8 µM) | EC50 (Rhinovirus 39; Table II, read-out: MIC 50 Rhinovirus Type 39): 5 µg/mL (≈ 14.8 µM); EC50 (Rhinovirus 63): 5 µg/mL (≈ 14.8 µM); EC50 (Rhinovirus 86): 5 µg/mL (≈ 14.8 µM); EC50 (Rhinovirus 88): < 0.5 µg/mL; EC50 (Polio 1): > 25 µg/mL; EC50 (Coxsacki-A9): > 25 µg/mL; IC50 (Coxsacki-A21): 10 µg/mL (≈ 29.5 µM); IC50 (Coxsacki-B1): > 25 µg/mL; IC50 (Coxsacki-B4): 10 µg/mL (≈ 29.5 µM); IC50 (Echo-7): > 25 µg/mL; IC50 (Echo-11): > 25 µg/mL; inhibitory activity against the members of the Entero virus family (Enterovirus serotypes): remarkable inhibitory activity; All Enterovirus Serotypes (number of serotypes active / tested) (Enterovirus serotypes): 2; inhibitory activity against HRV-1A and HRV-39 in vitro (HRV-1A and HRV-39): remarkably inhibitory activity; All Rhinovirus Serotypes (number of serotypes active / tested) [1]: 19
Cc1cnsc1CCCCCCOc1ccc2oc3ccccc3c2c1 [Compound 19] | 50 | 50 | 50 | 10 (≈ 27.4 µM) | 5 (≈ 13.7 µM) | 10 (≈ 27.4 µM) | > 25 | 10 (≈ 27.4 µM) | > 25 | 10 (≈ 27.4 µM) | 10 (≈ 27.4 µM) | 0.5 (≈ 1.37 µM) | > 25 | > 25 | > 25 | 5 (≈ 13.7 µM) | < 0.5 | > 25 | 10 (≈ 27.4 µM) | 10 (≈ 27.4 µM) | EC50 (Rhinovirus 63): 10 µg/mL (≈ 27.4 µM); EC50 (Rhinovirus 86): 10 µg/mL (≈ 27.4 µM); EC50 (Rhinovirus 88): 1 µg/mL (≈ 2.74 µM); EC50 (Polio 1): > 25 µg/mL; EC50 (Coxsacki-A9): 10 µg/mL (≈ 27.4 µM); IC50 (Coxsacki-A21): 10 µg/mL (≈ 27.4 µM); IC50 (Coxsacki-B1): 5 µg/mL (≈ 13.7 µM); IC50 (Coxsacki-B4): > 25 µg/mL; IC50 (Echo-7): 25 µg/mL (≈ 68.4 µM); IC50 (Echo-11): > 25 µg/mL; inhibitory activity against the members of the Entero virus family (Enterovirus serotypes): remarkable inhibitory activity; All Enterovirus Serotypes (number of serotypes active / tested) (Enterovirus serotypes): 4; inhibitory activity against HRV-1A and HRV-39 in vitro (HRV-1A and HRV-39): remarkably inhibitory activity; All Rhinovirus Serotypes (number of serotypes active / tested) [1]: 14
c1ccc2c(c1)oc1ccc(OCCCCCCc3ccns3)cc12 [Compound 25] | 50 | 50 | 50 | 10 (≈ 28.5 µM) | 5 (≈ 14.2 µM) | 20 (≈ 56.9 µM) | > 25 | 10 (≈ 28.5 µM) | 10 (≈ 28.5 µM) | 5 (≈ 14.2 µM) | 5 (≈ 14.2 µM) | 10 (≈ 28.5 µM) | > 25 | 10 (≈ 28.5 µM) | > 25 | 5 (≈ 14.2 µM) | 5 (≈ 14.2 µM) | > 25 | 10 (≈ 28.5 µM) | 10 (≈ 28.5 µM) | EC50 (Rhinovirus 63): 5 µg/mL (≈ 14.2 µM); EC50 (Rhinovirus 86): 10 µg/mL (≈ 28.5 µM); EC50 (Rhinovirus 88): 10 µg/mL (≈ 28.5 µM); EC50 (Polio 1): 10 µg/mL (≈ 28.5 µM); EC50 (Coxsacki-A9): 10 µg/mL (≈ 28.5 µM); IC50 (Coxsacki-A21): 5 µg/mL (≈ 14.2 µM); IC50 (Coxsacki-B1): > 25 µg/mL; IC50 (Coxsacki-B4): > 25 µg/mL; IC50 (Echo-7): 5 µg/mL (≈ 14.2 µM); IC50 (Echo-11): > 25 µg/mL; inhibitory activity against the members of the Entero virus family (Enterovirus serotypes): remarkable inhibitory activity; All Enterovirus Serotypes (number of serotypes active / tested) (Enterovirus serotypes): 4; inhibitory activity against HRV-1A and HRV-39 in vitro (HRV-1A and HRV-39): remarkably inhibitory activity; All Rhinovirus Serotypes (number of serotypes active / tested) [1]: 16
